Test results from the supplement of paper PMC8612539.
In brackets after ≈: the same amount, converted by molar mass.

Tested on: Escherichia coli
Assay: minimum inhibitory concentration (MIC)
Description: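 Broth microdilution MIC (Sensititre BOPO7F bovine plate, CLSI methods) of 19 antimicrobials against field isolates of P. multocida, M. haemolytica, H. somni (deep nasopharyngeal swabs) and E. coli, Enterococcus spp. (rectal swabs) from weaned dairy heifers. Incubation 16-24 h at 35 C. MIC is the lowest concentration preventing visible growth. Values with <= or > lie at the tested range limits. Trimethoprim-sulfamethoxazole is given as the trimethoprim component of a 1:19 mixture.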

CCN1CCN(c2cc3c(cc2F)c(=O)c(C(=O)O)cn3C2CC2)CC1 [Enrofloxacin]
Conditions	minimum inhibitory concentration [µg/mL]
isolate (source animal id): 8	≤ 0.12
isolate (source animal id): 9	> 2
isolate (source animal id): 10	≤ 0.12
isolate (source animal id): 11	≤ 0.12
isolate (source animal id): 12	> 2
isolate (source animal id): 13	≤ 0.12
isolate (source animal id): 14	0.5 (≈ 1.39 µM)
isolate (source animal id): 15	≤ 0.12
isolate (source animal id): 16	≤ 0.12
isolate (source animal id): 98	≤ 0.12
isolate (source animal id): 99	≤ 0.12
isolate (source animal id): 100	≤ 0.12
isolate (source animal id): 101	≤ 0.12
isolate (source animal id): 102	≤ 0.12
isolate (source animal id): 103	≤ 0.12
isolate (source animal id): 104	≤ 0.12
isolate (source animal id): 105	≤ 0.12
isolate (source animal id): 106	> 2
isolate (source animal id): 107	≤ 0.12
isolate (source animal id): 108	≤ 0.12
isolate (source animal id): 109	≤ 0.12
isolate (source animal id): 110	≤ 0.12
isolate (source animal id): 111	> 2
isolate (source animal id): 112	≤ 0.12
isolate (source animal id): 113	1 (≈ 2.78 µM)
isolate (source animal id): 114	≤ 0.12
isolate (source animal id): 115	1 (≈ 2.78 µM)
isolate (source animal id): 116	1 (≈ 2.78 µM)
isolate (source animal id): 117	≤ 0.12
isolate (source animal id): 118	0.5 (≈ 1.39 µM)
isolate (source animal id): 119	> 2
isolate (source animal id): 120	1 (≈ 2.78 µM)
isolate (source animal id): 121	≤ 0.12
isolate (source animal id): 122	≤ 0.12
isolate (source animal id): 123	≤ 0.12
isolate (source animal id): 124	> 2
isolate (source animal id): 125	≤ 0.12
isolate (source animal id): 126	> 2
isolate (source animal id): 127	≤ 0.12
isolate (source animal id): 128	≤ 0.12
isolate (source animal id): 129	1 (≈ 2.78 µM)
isolate (source animal id): 130	≤ 0.12
isolate (source animal id): 131	2 (≈ 5.56 µM)
isolate (source animal id): 132	0.5 (≈ 1.39 µM)
isolate (source animal id): 133	≤ 0.12
isolate (source animal id): 134	≤ 0.12
isolate (source animal id): 135	≤ 0.12
isolate (source animal id): 136	≤ 0.12
isolate (source animal id): 137	0.5 (≈ 1.39 µM)
isolate (source animal id): 138	> 2
isolate (source animal id): 139	0.25 (≈ 0.696 µM)
isolate (source animal id): 140	≤ 0.12
isolate (source animal id): 141	≤ 0.12
isolate (source animal id): 142	≤ 0.12
isolate (source animal id): 143	1 (≈ 2.78 µM)
isolate (source animal id): 144	> 2
isolate (source animal id): 145	≤ 0.12
isolate (source animal id): 146	0.5 (≈ 1.39 µM)
isolate (source animal id): 147	> 2
isolate (source animal id): 148	0.25 (≈ 0.696 µM)
isolate (source animal id): 149	≤ 0.12
isolate (source animal id): 150	≤ 0.12
isolate (source animal id): 151	≤ 0.12
isolate (source animal id): 152	≤ 0.12
isolate (source animal id): 153	≤ 0.12
isolate (source animal id): 154	0.5 (≈ 1.39 µM)
isolate (source animal id): 155	≤ 0.12
isolate (source animal id): 156	1 (≈ 2.78 µM)
isolate (source animal id): 157	≤ 0.12
isolate (source animal id): 158	≤ 0.12
isolate (source animal id): 159	≤ 0.12
isolate (source animal id): 160	≤ 0.12
isolate (source animal id): 161	≤ 0.12
isolate (source animal id): 162	> 2
isolate (source animal id): 163	≤ 0.12
isolate (source animal id): 164	≤ 0.12
isolate (source animal id): 165	≤ 0.12
isolate (source animal id): 166	≤ 0.12
isolate (source animal id): 167	≤ 0.12
isolate (source animal id): 168	≤ 0.12
isolate (source animal id): 169	≤ 0.12
isolate (source animal id): 170	≤ 0.12
isolate (source animal id): 171	≤ 0.12
isolate (source animal id): 172	≤ 0.12
isolate (source animal id): 173	≤ 0.12
isolate (source animal id): 174	≤ 0.12
isolate (source animal id): 175	≤ 0.12
isolate (source animal id): 176	≤ 0.12
isolate (source animal id): 177	≤ 0.12
isolate (source animal id): 178	≤ 0.12
isolate (source animal id): 179	≤ 0.12
isolate (source animal id): 180	≤ 0.12
isolate (source animal id): 181	≤ 0.12
isolate (source animal id): 182	≤ 0.12
isolate (source animal id): 183	≤ 0.12
isolate (source animal id): 184	≤ 0.12
isolate (source animal id): 185	≤ 0.12
isolate (source animal id): 186	≤ 0.12
isolate (source animal id): 187	≤ 0.12
isolate (source animal id): 188	2 (≈ 5.56 µM)

CS(=O)(=O)c1ccc([C@@H](O)[C@@H](CF)NC(=O)C(Cl)Cl)cc1 [Florfenicol]
Conditions	minimum inhibitory concentration [µg/mL]
isolate (source animal id): 8	4 (≈ 11.2 µM)
isolate (source animal id): 9	> 8
isolate (source animal id): 10	4 (≈ 11.2 µM)
isolate (source animal id): 11	2 (≈ 5.58 µM)
isolate (source animal id): 12	> 8
isolate (source animal id): 13	8 (≈ 22.3 µM)
isolate (source animal id): 14	> 8
isolate (source animal id): 15	> 8
isolate (source animal id): 16	> 8
isolate (source animal id): 98	2 (≈ 5.58 µM)
isolate (source animal id): 99	4 (≈ 11.2 µM)
isolate (source animal id): 100	> 8
isolate (source animal id): 101	> 8
isolate (source animal id): 102	> 8
isolate (source animal id): 103	4 (≈ 11.2 µM)
isolate (source animal id): 104	> 8
isolate (source animal id): 105	> 8
isolate (source animal id): 106	> 8
isolate (source animal id): 107	> 8
isolate (source animal id): 108	> 8
isolate (source animal id): 109	> 8
isolate (source animal id): 110	> 8
isolate (source animal id): 111	4 (≈ 11.2 µM)
isolate (source animal id): 112	> 8
isolate (source animal id): 113	> 8
isolate (source animal id): 114	4 (≈ 11.2 µM)
isolate (source animal id): 115	> 8
isolate (source animal id): 116	> 8
isolate (source animal id): 117	> 8
isolate (source animal id): 118	> 8
isolate (source animal id): 119	> 8
isolate (source animal id): 120	> 8
isolate (source animal id): 121	> 8
isolate (source animal id): 122	> 8
isolate (source animal id): 123	> 8
isolate (source animal id): 124	> 8
isolate (source animal id): 125	> 8
isolate (source animal id): 126	> 8
isolate (source animal id): 127	> 8
isolate (source animal id): 128	> 8
isolate (source animal id): 129	> 8
isolate (source animal id): 130	> 8
isolate (source animal id): 131	> 8
isolate (source animal id): 132	> 8
isolate (source animal id): 133	> 8
isolate (source animal id): 134	> 8
isolate (source animal id): 135	8 (≈ 22.3 µM)
isolate (source animal id): 136	> 8
isolate (source animal id): 137	> 8
isolate (source animal id): 138	> 8
isolate (source animal id): 139	> 8
isolate (source animal id): 140	4 (≈ 11.2 µM)
isolate (source animal id): 141	> 8
isolate (source animal id): 142	> 8
isolate (source animal id): 143	> 8
isolate (source animal id): 144	> 8
isolate (source animal id): 145	> 8
isolate (source animal id): 146	> 8
isolate (source animal id): 147	> 8
isolate (source animal id): 148	> 8
isolate (source animal id): 149	4 (≈ 11.2 µM)
isolate (source animal id): 150	> 8
isolate (source animal id): 151	> 8
isolate (source animal id): 152	> 8
isolate (source animal id): 153	> 8
isolate (source animal id): 154	> 8
isolate (source animal id): 155	> 8
isolate (source animal id): 156	> 8
isolate (source animal id): 157	> 8
isolate (source animal id): 158	> 8
isolate (source animal id): 159	> 8
isolate (source animal id): 160	> 8
isolate (source animal id): 161	> 8
isolate (source animal id): 162	> 8
isolate (source animal id): 163	> 8
isolate (source animal id): 164	> 8
isolate (source animal id): 165	> 8
isolate (source animal id): 166	> 8
isolate (source animal id): 167	8 (≈ 22.3 µM)
isolate (source animal id): 168	2 (≈ 5.58 µM)
isolate (source animal id): 169	8 (≈ 22.3 µM)
isolate (source animal id): 170	4 (≈ 11.2 µM)
isolate (source animal id): 171	4 (≈ 11.2 µM)
isolate (source animal id): 172	2 (≈ 5.58 µM)
isolate (source animal id): 173	> 8
isolate (source animal id): 174	4 (≈ 11.2 µM)
isolate (source animal id): 175	8 (≈ 22.3 µM)
isolate (source animal id): 176	4 (≈ 11.2 µM)
isolate (source animal id): 177	> 8
isolate (source animal id): 178	> 8
isolate (source animal id): 179	4 (≈ 11.2 µM)
isolate (source animal id): 180	4 (≈ 11.2 µM)
isolate (source animal id): 181	> 8
isolate (source animal id): 182	4 (≈ 11.2 µM)
isolate (source animal id): 183	> 8
isolate (source animal id): 184	4 (≈ 11.2 µM)
isolate (source animal id): 185	> 8
isolate (source animal id): 186	4 (≈ 11.2 µM)
isolate (source animal id): 187	> 8
isolate (source animal id): 188	> 8
